Toxic doses and inconclusive results are not listed. Rule as the data show it: active = T/C of 150% or more; inactive = T/C below 125%.
System: L1210 leukemia ip in BDF1 mice, survival T/C
Experiment: NCI In Vivo Anticancer Drug Screen. Data for tumor model L1210 Leukemia (intraperitoneal) in B6D2F1 (BDF1) mice
Conditions: endpoint: mean survival time, higher = longer survival
Summary of the method: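 Transplanted-tumor mice were given test agent; controls received vehicle only. Survival readings from the two groups were divided (treated over control).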

[1] = dose: 100.0 mg/kg/injection, schedule: Q04DX002 (ip), vehicle: Klucel (hydroxypropylcellulose) (HPC)
[2] = dose: 100.0 mg/kg/injection, schedule: Q04DX003 (ip), vehicle: saline with Tween-80
[3] = dose: 100.0 mg/kg/injection, schedule: Q04DX003 (ip), vehicle: saline
[4] = dose: 100.0 mg/kg/injection, schedule: Q01DX009 (ip), vehicle: saline with Tween-80
[5] = dose: 200.0 mg/kg/injection, schedule: Q01DX009 (ip), vehicle: saline with Tween-80
[6] = dose: 200.0 mg/kg/injection, schedule: Q04DX003 (ip), vehicle: saline with Tween-80
[7] = dose: 400.0 mg/kg/injection, schedule: Q04DX003 (ip), vehicle: saline with Tween-80
[8] = dose: 100.0 mg/kg/injection, schedule: Q01DX001 (ip), vehicle: saline
[9] = dose: 200.0 mg/kg/injection, schedule: Q01DX001 (ip), vehicle: saline
[10] = dose: 400.0 mg/kg/injection, schedule: Q01DX001 (ip), vehicle: saline
[11] = dose: 100.0 mg/kg/injection, schedule: Q01DX001 (ip), vehicle: saline with Tween-80
[12] = dose: 200.0 mg/kg/injection, schedule: Q01DX001 (ip), vehicle: saline with Tween-80
[13] = dose: 400.0 mg/kg/injection, schedule: Q01DX001 (ip), vehicle: saline with Tween-80

Measured: T/C

CCOC(=O)c1c(/N=C/c2ccc(N(C)C)cc2)sc2c1CCCC2
inactive: [1] 107 % of control | dose: 200.0 mg/kg/injection, schedule: Q04DX002 (ip), vehicle: Klucel (hydroxypropylcellulose) (HPC) 100 % of control | dose: 400.0 mg/kg/injection, schedule: Q04DX002 (ip), vehicle: Klucel (hydroxypropylcellulose) (HPC) 104 % of control

CCN(CCO)Cc1cccc2ccccc12
inactive: dose: 25.0 mg/kg/injection, schedule: Q04DX003 (ip), vehicle: saline 97 % of control | dose: 50.0 mg/kg/injection, schedule: Q04DX003 (ip), vehicle: saline 101 % of control | [2] 98 % of control | [3] 101 % of control

O=C(CNC(=O)Nc1cccc(Cl)c1Cl)N/N=C/c1cccc([N+](=O)[O-])c1
inactive: dose: 50.0 mg/kg/injection, schedule: Q01DX009 (ip), vehicle: saline with Tween-80 90 % of control | [4] 96 % of control | [5] 90 % of control

CCCCN(Cl)CCCC
inactive: dose: 100.0 mg/kg/injection, schedule: Q04DX002 (ip), vehicle: saline + alcohol 101 % of control

C/C(=N/N(C)C)c1ccc(C#N)cc1
inactive: dose: 100.0 mg/kg/injection, schedule: Q01DX001 (ip), vehicle: Klucel (hydroxypropylcellulose) (HPC) 112 % of control | dose: 200.0 mg/kg/injection, schedule: Q01DX001 (ip), vehicle: Klucel (hydroxypropylcellulose) (HPC) 113 % of control | dose: 400.0 mg/kg/injection, schedule: Q01DX001 (ip), vehicle: Klucel (hydroxypropylcellulose) (HPC) 105 % of control

COc1ccc(OC(=O)Nc2c(C)cccc2C)cc1
inactive: [4] 95 % of control | [2] 98 % of control | [5] 91 % of control | [6] 105 % of control | dose: 400.0 mg/kg/injection, schedule: Q01DX009 (ip), vehicle: saline with Tween-80 94 % of control | [7] 100 % of control

CN(C)CCNC1c2ccccc2CCc2ccccc21
inactive: dose: 18.75 mg/kg/injection, schedule: Q04DX003 (ip), vehicle: saline 98 % of control | dose: 37.5 mg/kg/injection, schedule: Q04DX003 (ip), vehicle: saline 104 % of control | dose: 75.0 mg/kg/injection, schedule: Q04DX003 (ip), vehicle: saline 101 % of control

CCCCN1CCNCC1
inactive: dose: 50.0 mg/kg/injection, schedule: Q01DX009 (ip), vehicle: saline 95 % of control | dose: 100.0 mg/kg/injection, schedule: Q01DX009 (ip), vehicle: saline 97 % of control | dose: 200.0 mg/kg/injection, schedule: Q01DX009 (ip), vehicle: saline 106 % of control

O=C1OC(=O)C2C3C=CC(CC12)O3 (stereo not drawn)
inactive: dose: 6.25 mg/kg/injection, schedule: Q01DX009 (ip), vehicle: saline with Tween-80 97 % of control | dose: 6.25 mg/kg/injection, schedule: Q04DX003 (ip), vehicle: saline with Tween-80 96 % of control | dose: 12.5 mg/kg/injection, schedule: Q01DX009 (ip), vehicle: saline with Tween-80 97 % of control | dose: 12.5 mg/kg/injection, schedule: Q04DX003 (ip), vehicle: saline with Tween-80 91 % of control | dose: 25.0 mg/kg/injection, schedule: Q04DX003 (ip), vehicle: saline with Tween-80 94 % of control

c1ccc([P+](c2ccccc2)(c2ccccc2)c2ccc([P+](c3ccccc3)(c3ccccc3)c3ccccc3)c3ccccc23)cc1
inactive: dose: 0.6 mg/kg/injection, schedule: Q04DX003 (ip), vehicle: Klucel (hydroxypropylcellulose) (HPC) 92 % of control | dose: 1.0 mg/kg/injection, schedule: Q04DX003 (ip), vehicle: Klucel (hydroxypropylcellulose) (HPC) 92 % of control | dose: 1.5 mg/kg/injection, schedule: Q04DX003 (ip), vehicle: Klucel (hydroxypropylcellulose) (HPC) 92 % of control | dose: 2.25 mg/kg/injection, schedule: Q04DX003 (ip), vehicle: Klucel (hydroxypropylcellulose) (HPC) 92 % of control | dose: 3.12 mg/kg/injection, schedule: Q04DX003 (ip), vehicle: Klucel (hydroxypropylcellulose) (HPC) 96 % of control | dose: 6.25 mg/kg/injection, schedule: Q04DX003 (ip), vehicle: Klucel (hydroxypropylcellulose) (HPC) 94 % of control

O=C1COc2cc(O)c(O)cc21
inactive: [8] 104 % of control | [9] 103 % of control | [10] 104 % of control

Cc1ccc(S(=O)(=O)OCC2CC=CCC2COS(=O)(=O)c2ccc(C)cc2)cc1 (stereo not drawn)
inactive: [8] 88 % of control | [9] 92 % of control | [10] 88 % of control

COc1ccc(C(O)c2c(CN3CCCCC3)c3ccccc3n2C)cc1 (stereo not drawn)
inactive: dose: 100.0 mg/kg/injection, schedule: Q04DX002 (ip), vehicle: saline with Tween-80 100 % of control | dose: 200.0 mg/kg/injection, schedule: Q04DX002 (ip), vehicle: saline with Tween-80 97 % of control

CNS(=O)(=O)CCC1NC(=O)NC1=O (stereo not drawn)
inactive: [2] 100 % of control | [6] 105 % of control | [7] 101 % of control

C/C(=N/C(=O)NN)c1ccc(Cl)cc1
inactive: [11] 108 % of control | [2] 93 % of control | [12] 95 % of control | [6] 98 % of control | [13] 101 % of control

O=C(/C=C\c1ccccc1)c1ccc(Cl)cc1
inactive: dose: 100.0 mg/kg/injection, schedule: Q01DX009 (ip), vehicle: Klucel (hydroxypropylcellulose) (HPC) 97 % of control | dose: 200.0 mg/kg/injection, schedule: Q01DX009 (ip), vehicle: Klucel (hydroxypropylcellulose) (HPC) 97 % of control | dose: 400.0 mg/kg/injection, schedule: Q01DX009 (ip), vehicle: Klucel (hydroxypropylcellulose) (HPC) 100 % of control

C=CCCN(c1ccc(C(=O)OCC)cc1)S(=O)(=O)c1ccc(C)cc1
inactive: dose: 50.0 mg/kg/injection, schedule: Q01DX001 (ip), vehicle: carboxymethylcellulose (CMC) 102 % of control | dose: 100.0 mg/kg/injection, schedule: Q01DX001 (ip), vehicle: carboxymethylcellulose (CMC) 100 % of control | dose: 200.0 mg/kg/injection, schedule: Q01DX001 (ip), vehicle: carboxymethylcellulose (CMC) 107 % of control | dose: 400.0 mg/kg/injection, schedule: Q01DX001 (ip), vehicle: carboxymethylcellulose (CMC) 96 % of control

Cc1c(C)c(C)c(CN2CCCC2)c(C)c1C
inactive: dose: 12.5 mg/kg/injection, schedule: Q01DX005 (ip), vehicle: Klucel (hydroxypropylcellulose) (HPC) 107 % of control | dose: 12.5 mg/kg/injection, schedule: Q04DX002 (ip), vehicle: Klucel (hydroxypropylcellulose) (HPC) 109 % of control | dose: 25.0 mg/kg/injection, schedule: Q01DX005 (ip), vehicle: Klucel (hydroxypropylcellulose) (HPC) 97 % of control | dose: 25.0 mg/kg/injection, schedule: Q04DX002 (ip), vehicle: Klucel (hydroxypropylcellulose) (HPC) 86 % of control | dose: 35.0 mg/kg/injection, schedule: Q01DX009 (ip), vehicle: Klucel (hydroxypropylcellulose) (HPC) 90 % of control | dose: 50.0 mg/kg/injection, schedule: Q04DX002 (ip), vehicle: Klucel (hydroxypropylcellulose) (HPC) 112 % of control | [1] 94 % of control

CCOC(=O)c1cccc([N+](=O)[O-])c1I
inactive: [3] 93 % of control | dose: 200.0 mg/kg/injection, schedule: Q04DX003 (ip), vehicle: saline 95 % of control | dose: 400.0 mg/kg/injection, schedule: Q04DX003 (ip), vehicle: saline 96 % of control

COC(=O)c1cc(I)cc(I)c1N
inactive: [11] 98 % of control | [12] 98 % of control | [13] 100 % of control
